Experimental data as given in PubChem BioAssay AID256 (DTP/NCI, 2004).
Inconclusive results and toxic doses are left out. How the source made its calls: active means survival T/C of 150% or more; inactive means T/C below 125% in these data.

Tested on: CD2F1 mice, L1210 leukemia ip, survival T/C
Assay: NCI In Vivo Anticancer Drug Screen. Data for tumor model L1210 Leukemia (intraperitoneal) in CD2F1 (CDF1) mice
Conditions: higher = longer survival
In short: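 In this screen, transplantable tumors were grown in mice given either the compound or its vehicle. Results were expressed as the treated measurement relative to the control measurement.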

[1] = endpoint: mean survival time, dose: 100.0 mg/kg/injection, schedule: Q04DX002 (ip), vehicle: saline with Tween-80
[2] = endpoint: mean survival time, dose: 200.0 mg/kg/injection, schedule: Q04DX002 (ip), vehicle: saline with Tween-80
[3] = endpoint: mean survival time, dose: 400.0 mg/kg/injection, schedule: Q04DX002 (ip), vehicle: saline with Tween-80
[4] = endpoint: mean survival time, dose: 100.0 mg/kg/injection, schedule: Q01DX009 (ip), vehicle: saline with Tween-80
[5] = endpoint: mean survival time, dose: 100.0 mg/kg/injection, schedule: Q04DX003 (ip), vehicle: saline with Tween-80
[6] = endpoint: mean survival time, dose: 200.0 mg/kg/injection, schedule: Q01DX009 (ip), vehicle: saline with Tween-80
[7] = endpoint: mean survival time, dose: 200.0 mg/kg/injection, schedule: Q04DX003 (ip), vehicle: saline with Tween-80
[8] = endpoint: mean survival time, dose: 400.0 mg/kg/injection, schedule: Q01DX009 (ip), vehicle: saline with Tween-80
[9] = endpoint: mean survival time, dose: 400.0 mg/kg/injection, schedule: Q04DX003 (ip), vehicle: saline with Tween-80

Measured: T/C

CCSC(=S)S
inactive: endpoint: mean survival time, dose: 75.0 mg/kg/injection, schedule: Q04DX003 (ip), vehicle: saline 104 % of control | endpoint: mean survival time, dose: 150.0 mg/kg/injection, schedule: Q04DX003 (ip), vehicle: saline 98 % of control | endpoint: mean survival time, dose: 300.0 mg/kg/injection, schedule: Q04DX003 (ip), vehicle: saline 104 % of control

Nc1ncnc2c1nc(Br)n2C1OC(CO)C(O)C1O (stereo not drawn)
inactive: [1] 95 % of control | [2] 98 % of control | [3] 98 % of control

O=c1[nH]cnc2c1cnn2CN1CCOCC1
inactive: endpoint: median survival time, dose: 25.0 mg/kg/injection, schedule: Q01DX009 (ip), vehicle: Klucel (hydroxypropylcellulose) (HPC) 106 % of control | endpoint: median survival time, dose: 50.0 mg/kg/injection, schedule: Q01DX009 (ip), vehicle: Klucel (hydroxypropylcellulose) (HPC) 106 % of control | endpoint: median survival time, dose: 100.0 mg/kg/injection, schedule: Q01DX009 (ip), vehicle: Klucel (hydroxypropylcellulose) (HPC) 110 % of control | endpoint: median survival time, dose: 200.0 mg/kg/injection, schedule: Q01DX009 (ip), vehicle: Klucel (hydroxypropylcellulose) (HPC) 114 % of control

c1cnc(NCCSSCCNc2ncccn2)nc1
inactive: [4] 91 % of control | [5] 97 % of control | [6] 89 % of control | [7] 97 % of control | [8] 91 % of control | [9] 96 % of control

Cc1ccc2c(c1)NP(=S)(c1ccccc1)N2 (stereo not drawn)
inactive: [4] 91 % of control | [6] 86 % of control | [8] 94 % of control

O=c1c2ccc(Cl)cc2[nH]c(=S)n1-c1ccc(Cl)cc1
inactive: [5] 104 % of control | [7] 93 % of control | [9] 102 % of control

Nc1ccc(N=Nc2ccccc2)c(N)n1
inactive: [4] 98 % of control | [6] 98 % of control | [8] 100 % of control

CC(NC=O)c1c[nH]c(=O)[nH]c1=O (stereo not drawn)
inactive: [4] 100 % of control | [6] 97 % of control | [8] 97 % of control

Cc1ccccc1N=Cc1ccc(N(C)C)cc1
inactive: [4] 96 % of control | [5] 97 % of control | [6] 95 % of control | [7] 103 % of control | [8] 90 % of control | [9] 98 % of control

COc1ccc(CC(O)CO)cc1OCc1ccccc1 (stereo not drawn)
inactive: [4] 95 % of control | [6] 96 % of control | [8] 98 % of control

COC1=C(N)C(=O)c2nc(-c3nc(C(=O)O)c(C)c(-c4ccc(OC)c(OC)c4O)c3N)ccc2C1=O
inactive: endpoint: mean survival time, dose: 0.25 mg/kg/injection, schedule: Q01DX009 (ip), vehicle: saline with Tween-80 117 % of control | endpoint: mean survival time, dose: 0.5 mg/kg/injection, schedule: Q01DX009 (ip), vehicle: saline with Tween-80 100 % of control | endpoint: mean survival time, dose: 0.5 mg/kg/injection, schedule: Q04DX003 (ip), vehicle: saline with Tween-80 118 % of control | endpoint: mean survival time, dose: 1.0 mg/kg/injection, schedule: Q04DX003 (ip), vehicle: saline with Tween-80 105 % of control

NS(=O)(=O)C1CCC(Cl)NC1 (stereo not drawn)
inactive: [5] 100 % of control | [7] 96 % of control | [9] 102 % of control

CCCCC(CC)COP(OCC(CC)CCCC)OCC(CC)CCCC (stereo not drawn)
inactive: [4] 92 % of control | [6] 87 % of control

S=C(NCNC(=S)c1ccncc1)c1ccncc1
inactive: endpoint: median survival time, dose: 25.0 mg/kg/injection, schedule: Q01DX009 (ip), vehicle: saline with Tween-80 102 % of control | endpoint: median survival time, dose: 50.0 mg/kg/injection, schedule: Q01DX009 (ip), vehicle: saline with Tween-80 103 % of control | endpoint: median survival time, dose: 100.0 mg/kg/injection, schedule: Q01DX009 (ip), vehicle: saline with Tween-80 106 % of control | endpoint: median survival time, dose: 200.0 mg/kg/injection, schedule: Q01DX009 (ip), vehicle: saline with Tween-80 104 % of control | endpoint: median survival time, dose: 400.0 mg/kg/injection, schedule: Q01DX009 (ip), vehicle: saline with Tween-80 104 % of control

O=S(c1ccc(O)cc1)c1ccc(O)cc1
inactive: endpoint: mean survival time, dose: 50.0 mg/kg/injection, schedule: Q01DX009 (ip), vehicle: saline with Tween-80 90 % of control | [4] 94 % of control

C[N+](C)(C)/N=C/c1ccc(Cl)cc1
inactive: endpoint: mean survival time, dose: 50.0 mg/kg/injection, schedule: Q04DX002 (ip), vehicle: saline with Tween-80 93 % of control

CN(Cc1ccccc1)C(=O)C(=O)c1c[nH]c2ccccc12
inactive: [4] 95 % of control | [5] 98 % of control | [6] 89 % of control | [7] 87 % of control | [8] 91 % of control | [9] 90 % of control

CC(=O)N(C)N=Nc1ccc(C)cc1
inactive: endpoint: mean survival time, dose: 88.0 mg/kg/injection, schedule: Q04DX003 (ip), vehicle: other 114 % of control | endpoint: mean survival time, dose: 200.0 mg/kg/injection, schedule: Q04DX003 (ip), vehicle: other 121 % of control

CCCC(=O)NN=C(C)C
inactive: endpoint: mean survival time, dose: 12.5 mg/kg/injection, schedule: Q04DX003 (ip), vehicle: saline 105 % of control | endpoint: mean survival time, dose: 25.0 mg/kg/injection, schedule: Q04DX003 (ip), vehicle: saline 104 % of control | endpoint: mean survival time, dose: 50.0 mg/kg/injection, schedule: Q04DX003 (ip), vehicle: saline 107 % of control

O=C1OC(/C=C/c2ccccc2)=NC/1=C\c1ccccc1Cl
inactive: [1] 103 % of control | [2] 103 % of control | [3] 91 % of control

CNC(=O)Nc1cc(OC)ccc1OC
inactive: endpoint: mean survival time, dose: 100.0 mg/kg/injection, schedule: Q01DX001 (ip), vehicle: saline with Tween-80 106 % of control | endpoint: mean survival time, dose: 200.0 mg/kg/injection, schedule: Q01DX001 (ip), vehicle: saline with Tween-80 106 % of control | endpoint: mean survival time, dose: 400.0 mg/kg/injection, schedule: Q01DX001 (ip), vehicle: saline with Tween-80 102 % of control

O=P1(OCCBr)NCCCO1 (stereo not drawn)
inactive: endpoint: mean survival time, dose: 62.5 mg/kg/injection, schedule: Q01DX001 (ip), vehicle: water 95 % of control | endpoint: mean survival time, dose: 125.0 mg/kg/injection, schedule: Q01DX001 (ip), vehicle: water 101 % of control | endpoint: mean survival time, dose: 250.0 mg/kg/injection, schedule: Q01DX001 (ip), vehicle: water 104 % of control | endpoint: mean survival time, dose: 500.0 mg/kg/injection, schedule: Q01DX001 (ip), vehicle: water 98 % of control | endpoint: mean survival time, dose: 750.0 mg/kg/injection, schedule: Q01DX001 (ip), vehicle: water 101 % of control

[Pd].[Pd].[S-]CC[S-].[S-]CC[S-].c1ccc([PH+](c2ccccc2)c2ccccc2)cc1.c1ccc([PH+](c2ccccc2)c2ccccc2)cc1
inactive: endpoint: mean survival time, dose: 3.13 mg/kg/injection, schedule: Q04DX003 (ip), vehicle: distilled water + Tween-80 106 % of control | endpoint: mean survival time, dose: 6.25 mg/kg/injection, schedule: Q04DX003 (ip), vehicle: distilled water + Tween-80 98 % of control | endpoint: mean survival time, dose: 12.5 mg/kg/injection, schedule: Q04DX003 (ip), vehicle: distilled water + Tween-80 95 % of control | endpoint: mean survival time, dose: 25.0 mg/kg/injection, schedule: Q04DX003 (ip), vehicle: distilled water + Tween-80 92 % of control | endpoint: mean survival time, dose: 50.0 mg/kg/injection, schedule: Q04DX003 (ip), vehicle: distilled water + Tween-80 95 % of control | endpoint: mean survival time, dose: 100.0 mg/kg/injection, schedule: Q04DX003 (ip), vehicle: distilled water + Tween-80 92 % of control | endpoint: mean survival time, dose: 200.0 mg/kg/injection, schedule: Q04DX003 (ip), vehicle: distilled water + Tween-80 93 % of control
